One may read the IC50 as the concentration needed to halve the response being measured.

The results in this text go back to US20230286970A1, “NOVEL OXADIAZOLE-BASED SELECTIVE HDAC6 INHIBITORS” (ITALFARMACO S.P.A., priority 2020, published 2023).

SMILES strings stand for the structures.

The target of one test is recombinant human HDAC1 (Homo sapiens (Human), UniProt Q13547). The test is described as follows: Enzymatic screening, HDAC1 inhibition (fluorogenic FdL_G substrate). Format: biochemical. The method in brief:
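Recombinant human HDAC1 inhibition was measured fluorometrically using the FLUOR DE LYS-Green (FdL_G) substrate. Compounds at 8 doses (1% DMSO final) in Tris-HCl pH 8 buffer with NaCl, Tween-20 and glycerol were preincubated in triplicate with enzyme and 1 mg/mL BSA, then given substrate. Developer I plus 2 μM TSA was added, and fluorescence read after 25 minutes in the dark.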

In another test the target is recombinant human HDAC6 (Homo sapiens (Human), UniProt Q9UBN7). The test is described as follows: Enzymatic screening, HDAC6 inhibition (fluorogenic FdL_G substrate). Format: biochemical. The method in brief: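 Enzyme was preincubated with compound (8 doses, triplicate, 1% DMSO) in 25 mM Tris-HCl pH 8, 130 mM NaCl, 0.05% Tween-20, 10% glycerol, with BSA. A FLUOR DE LYS-Green substrate was then added, and fluorescence was read after developer plus 2 μM TSA.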
Chain of recombinant human HDAC6 (Q9UBN7 whole entry): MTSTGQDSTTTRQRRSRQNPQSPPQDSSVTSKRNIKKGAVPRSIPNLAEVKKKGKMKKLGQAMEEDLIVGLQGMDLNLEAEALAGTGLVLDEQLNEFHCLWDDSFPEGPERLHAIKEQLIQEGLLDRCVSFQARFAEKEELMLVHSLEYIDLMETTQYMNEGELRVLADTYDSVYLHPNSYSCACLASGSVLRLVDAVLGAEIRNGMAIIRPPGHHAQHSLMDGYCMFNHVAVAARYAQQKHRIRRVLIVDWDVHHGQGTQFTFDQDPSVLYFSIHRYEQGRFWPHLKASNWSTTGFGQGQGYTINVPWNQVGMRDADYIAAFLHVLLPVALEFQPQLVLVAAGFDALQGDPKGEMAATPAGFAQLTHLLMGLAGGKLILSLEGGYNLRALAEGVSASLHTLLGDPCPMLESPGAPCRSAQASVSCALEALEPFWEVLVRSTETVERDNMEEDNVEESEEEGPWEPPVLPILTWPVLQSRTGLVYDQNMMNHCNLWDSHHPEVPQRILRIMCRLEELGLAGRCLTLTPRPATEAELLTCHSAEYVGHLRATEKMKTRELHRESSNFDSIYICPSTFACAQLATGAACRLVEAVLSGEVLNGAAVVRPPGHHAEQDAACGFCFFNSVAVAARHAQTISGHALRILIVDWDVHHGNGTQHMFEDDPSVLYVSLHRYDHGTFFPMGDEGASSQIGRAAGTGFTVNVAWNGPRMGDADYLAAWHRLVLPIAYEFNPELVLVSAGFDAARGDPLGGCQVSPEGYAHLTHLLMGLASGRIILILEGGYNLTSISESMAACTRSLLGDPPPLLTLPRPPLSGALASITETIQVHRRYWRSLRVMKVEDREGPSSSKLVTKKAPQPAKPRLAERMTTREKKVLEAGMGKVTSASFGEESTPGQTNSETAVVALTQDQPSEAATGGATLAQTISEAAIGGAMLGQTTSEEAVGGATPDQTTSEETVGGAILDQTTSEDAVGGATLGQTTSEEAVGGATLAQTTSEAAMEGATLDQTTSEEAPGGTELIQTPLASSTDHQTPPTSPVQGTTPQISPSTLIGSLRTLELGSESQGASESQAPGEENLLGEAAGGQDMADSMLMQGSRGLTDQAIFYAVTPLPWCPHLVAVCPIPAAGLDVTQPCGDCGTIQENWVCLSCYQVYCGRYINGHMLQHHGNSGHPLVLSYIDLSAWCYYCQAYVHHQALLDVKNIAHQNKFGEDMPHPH

Chain of recombinant human HDAC1 (Q13547 whole entry): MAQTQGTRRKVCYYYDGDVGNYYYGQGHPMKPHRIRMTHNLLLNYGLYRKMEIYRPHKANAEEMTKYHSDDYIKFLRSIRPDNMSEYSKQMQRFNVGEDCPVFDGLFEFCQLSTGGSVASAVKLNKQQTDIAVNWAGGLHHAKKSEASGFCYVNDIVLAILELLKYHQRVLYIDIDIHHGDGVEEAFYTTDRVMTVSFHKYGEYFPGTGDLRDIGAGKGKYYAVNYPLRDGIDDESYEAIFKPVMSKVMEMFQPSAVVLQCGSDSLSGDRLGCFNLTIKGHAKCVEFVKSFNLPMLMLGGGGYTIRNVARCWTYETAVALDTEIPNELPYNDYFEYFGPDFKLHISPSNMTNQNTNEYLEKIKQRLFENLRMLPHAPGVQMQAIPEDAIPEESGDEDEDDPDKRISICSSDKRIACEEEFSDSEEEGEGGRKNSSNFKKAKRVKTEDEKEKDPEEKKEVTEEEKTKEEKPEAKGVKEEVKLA

Take `CC(=O)Nc1cccc(-c2cn(Cc3c(F)cc(-c4nnc(C(F)F)o4)cc3F)nn2)c1` [compound 70, N-(3-(1-(4-(5-(difluoromethyl)-1,3,4-oxadiazol-2-yl)-2,6-difluorobenzyl)-1H-1,2,3-triazol-4-yl)phenyl)acetamide]: the IC50 on recombinant human HDAC1 was > 200000 nM; on recombinant human HDAC6 it was 34 nM.
In the case of `O=C1NCc2cc(-c3nnn(Cc4ccc(-c5nnc(C(F)F)o5)cc4)n3)ccc21` [compound 167, 5-(2-(4-(5-(difluoromethyl)-1,3,4-oxadiazol-2-yl)benzyl)-2H-tetrazol-5-yl)isoindolin-1-one], the results for the IC50 at recombinant human HDAC1 and at recombinant human HDAC6 were > 200000 nM and 79 nM, respectively.
Consider `Nc1ccc(-c2cn([C@@H](CO)c3ccc(-c4nnc(C(F)F)o4)cc3)nn2)cn1` [compound 314, (2R)-2-[4-(6-aminopyridin-3-yl)triazol-1-yl]-2-[4-[5-(difluoromethyl)-1,3,4-oxadiazol-2-yl]phenyl]ethanol], for which the IC50 on recombinant human HDAC1 is > 1e+06 nM; on recombinant human HDAC6, 22 nM.
Consider `O=C(Nc1cccc(-c2cn(Cc3ccc(-c4nnc(C(F)F)o4)c(F)c3F)nn2)c1)N1CCOCC1` [compound 338, N-[3-[1-[[4-[5-(difluoromethyl)-1,3,4-oxadiazol-2-yl]-2,3-difluorophenyl]methyl]triazol-4-yl]phenyl]morpholine-4-carboxamide], for which the concentration for half-maximal inhibition (IC50) was > 1e+06 nM at recombinant human HDAC1 and 101 nM on recombinant human HDAC6.
For `Fc1cc(Cn2nnc(-c3cccc(-c4nc5c([nH]4)CNCC5)c3)n2)ccc1-c1nnc(C(F)F)o1` [compound 364, 2-(difluoromethyl)-5-[2-fluoro-4-[[5-[3-(4,5,6,7-tetrahydro-3H-imidazo[4,5-c]pyridin-2-yl)phenyl]tetrazol-2-yl]methyl]phenyl]-1,3,4-oxadiazole] the same measures were 570000 nM and 37 nM.
For `FC(F)c1nnc(-c2ccc(Cn3nnc(-c4cncc5ccccc45)n3)cc2)o1` [compound 118, 2-(difluoromethyl)-5-(4-((5-(isoquinolin-4-yl)-2H-tetrazol-2-yl)methyl)phenyl)-1,3,4-oxadiazole], the IC50 on recombinant human HDAC1 is > 200000 nM; at recombinant human HDAC6 it was 44 nM.
`[2H]C([2H])(c1ccc(-c2nnc(C(F)F)o2)cn1)n1cc(-c2cccc(NC(=O)N3CCOCC3)c2)nn1` [compound 369, N-[3-[1-[dideuterio-[5-[5-(difluoromethyl)-1,3,4-oxadiazol-2-yl]pyridin-2-yl]methyl]triazol-4-yl]phenyl]morpholine-4-carboxamide]: the IC50 on recombinant human HDAC1 was > 1e+06 nM; on recombinant human HDAC6, 17 nM.
In the same order, the values of `FC(F)c1nnc(-c2ccc(Cn3cc(-c4cnc5cccnn45)nn3)cc2)o1` [compound 280, 2-(difluoromethyl)-5-(4-((4-(imidazo[1,2-b]pyridazin-3-yl)-1H-1,2,3-triazol-1-yl)methyl)phenyl)-1,3,4-oxadiazole] are > 200000 nM and 89 nM.
`Nc1cncc(-c2cn(Cc3c(F)cc(-c4nnc(C(F)F)o4)cc3F)nn2)c1` [compound 73, 5-(1-(4-(5-(difluoromethyl)-1,3,4-oxadiazol-2-yl)-2,6-difluorobenzyl)-1H-1,2,3-triazol-4-yl)pyridin-3-amine]: the IC50 was > 200000 nM at recombinant human HDAC1 and 31 nM on recombinant human HDAC6.
As to `CN1CCC(NC(=O)c2ccc(-c3nnn(Cc4ccc(-c5nnc(C(F)F)o5)cc4)n3)cc2)CC1` [compound 232, 4-(2-(4-(5-(difluoromethyl)-1,3,4-oxadiazol-2-yl)benzyl)-2H-tetrazol-5-yl)-N-(1-methylpiperidin-4-yl)benzamide], the 50% inhibitory concentration (IC50) at recombinant human HDAC1 is > 200000 nM; on recombinant human HDAC6 it was 198 nM.
For `CN(C)c1ccc(-c2cn(Cc3ccc(-c4nnc(C(F)F)o4)cc3)nn2)cc1` [compound 281, 4-(1-(4-(5-(difluoromethyl)-1,3,4-oxadiazol-2-yl)benzyl)-1H-1,2,3-triazol-4-yl)-N,N-dimethylaniline] the same measures were > 200000 nM and 200 nM.
